Data: patent US11382918B2, “Methods for treating Huntington's Disease” (PTC Therapeutics, Inc., priority 2017, dated 2022)
Counter-ions that a name gives are not always drawn.

System: Endogenous Huntingtin Protein (HTT)
Test: Endogenous Huntingtin Protein Assay (ELISA-based MSD electrochemiluminescence)
Assay type: cell-based
Details: Table 1
Protocol: Compounds of Formula (I) were tested using the Meso Scale Discovery (MSD) Assay provided in International Application No. PCT/US2016/066042, filed on Dec. 11, 2016 and claiming priority to U.S. Provisional Application 62/265,652 filed on Dec. 10, 2015, published as International Publication No. WO 2017/100726 on Jun. 15, 2017, the entire contents of which are incorporated herein by reference.
The Endogenous Huntingtin Protein assay used in Example 1 was developed using the ELISA-based MSD electrochemiluminescence assay platform.
Endogenous Huntingtin Protein Assay
Meso Scale Discovery (MSD) 96-well or 384-well plates were coated overnight at 4° C. with MW1 (expanded polyglutamine) or MAB2166 monoclonal antibody (for capture) at a concentration of 1 μg/mL in PBS (30 μL per well). Plates were then washed three times with 300 µL wash buffer (0.05% Tween-20 in PBS) and blocked (100 μL blocking buffer; 5% BSA in PBS) for 4-5 hours at room temperature with rotational shaking and then washed three times with wash buffer.
Samples (25 μL) were transferred to the antibody-coated MSD plate and incubated overnight at 4° C. After removal of the lysates, the plate was washed three times with wash buffer, and 25 μL of #5656S (Cell signaling; rabbit monoclonal) secondary antibody (diluted to 0.25 μg/mL in 0.05% Tween-20 in blocking buffer) was added to each well and incubated with shaking for 1 Hour at room temperature. Following incubation with the secondary antibody, the wells were rinsed with wash buffer after which 25 μL of goat anti-rabbit SULFO TAG secondary detection antibody (required aspect of the MSD system) (diluted to 0.25 μg/mL in 0.05% Tween-20 in blocking buffer) was added to each well and incubated with shaking for 1 hour at room temperature. After rinsing three times with wash buffer, 150 μL of read buffer T with surfactant (MSD) were added to each empty well, and the plate was imaged on a SI 6000 imager (MSD) according to manufacturers' instructions provided for 96- or 384-well plates.

IC50 | Compound
3000 to 33000 nM | CCN1CCN(c2ccc3nc(-c4cc(C)c5c(cnn5C)c4)cc(=O)n3c2)CC1 [compound 845, 2-(1,7-dimethyl-1H-indazol-5-yl)-7-(4-ethylpiperazin-1-yl)-4H-pyrido[1,2-a]pyrimidin-4-one]
< 100 nM | Cc1nc(C2CCNCC2)cn2c(=O)cc(-c3ccc4nn(C)cc4c3)nc12 [compound 796, 9-methyl-2-(2-methyl-2H-indazol-5-yl)-7-(piperidin-4-yl)-4H-pyrazino[1,2-a]pyrimidin-4-one]
1000 to 3000 nM | Cc1cn2nc(-c3cc(=O)n4cc(N5CC(CN(C)C)C5)ccc4n3)cc2c(C)n1 [compound 780, 7-{3-[(dimethylamino)methyl]azetidin-1-yl}-2-(4,6-dimethylpyrazolo[1,5-a]pyrazin-2-yl)-4H-pyrido[1,2-a]pyrimidin-4-one]
3000 to 33000 nM | COc1cc(O)ccc1-c1cc(=O)n2cc(C3=CCN(C(=O)OC(C)(C)C)CC3)ccc2n1 [compound 847, tert-butyl 4-[2-(4-hydroxy-2-methoxyphenyl)-4-oxo-4H-pyrido[1,2-a]pyrimidin-7-yl]-3,6-dihydropyridine-1(2H)-carboxylate]
500 to 1000 nM | Cc1cn2cc(-c3cc(=O)n4cc(C5CCNCC5)ncc4n3)cc(C)c2n1 [compound 588, 2-(2,8-dimethylimidazo[1,2-a]pyridin-6-yl)-7-(piperidin-4-yl)-4H-pyrazino[1,2-a]pyrimidin-4-one]
1000 to 3000 nM | Cc1cn2cc(-c3cc(=O)n4cc(C5CCN(CCO)CC5)ncc4n3)cc(C)c2n1 [compound 594, 2-(2,8-dimethylimidazo[1,2-a]pyridin-6-yl)-7-[1-(2-hydroxyethyl)piperidin-4-yl]-4H-pyrazino[1,2-a]pyrimidin-4-one]
1000 to 3000 nM | Cc1cc2cc(-c3cc(=O)n4cc(N5CCN[C@@H](C)C5)ccc4n3)ccn2n1 [compound 856, 7-[(3S)-3-methylpiperazin-1-yl]-2-(2-methylpyrazolo[1,5-a]pyridin-5-yl)-4H-pyrido[1,2-a]pyrimidin-4-one hydrochloride (1:2)]
< 100 nM | Cc1cn2nc(-c3cc(=O)n4cc(C5CCNCC5)nc(C)c4n3)ccc2n1 [compound 870, 9-methyl-2-(2-methylimidazo[1,2-b]pyridazin-6-yl)-7-(piperidin-4-yl)-4H-pyrazino[1,2-a]pyrimidin-4-one hydrochloride (1:2)]
3000 to 33000 nM | Cc1cn2nc(-c3cc(=O)n4cc(C5CCN(C6CC6)CC5)ccc4n3)cc2c(C)n1 [compound 641, 7-(1-cyclopropylpiperidin-4-yl)-2-(4,6-dimethylpyrazolo[1,5-a]pyrazin-2-yl)-4H-pyrido[1,2-a]pyrimidin-4-one]

Second part, the compound before the results:

Compound | IC50
Cc1cn2nc(-c3cc(=O)n4cc(C5=CCN(C)CC5)cc(C)c4n3)cc2c(C)n1 [compound 481, 2-(4,6-dimethylpyrazolo[1,5-a]pyrazin-2-yl)-9-methyl-7-(1-methyl-1,2,3,6-tetrahydropyridin-4-yl)-4H-pyrido[1,2-a]pyrimidin-4-one] | 3000 to 33000 nM
CN1CC=C(c2ccc3nc(-c4ccc(N(C)C)nc4)cc(=O)n3c2)CC1 [compound 450, 2-[6-(dimethylamino)pyridin-3-yl]-7-(1-methyl-1,2,3,6-tetrahydropyridin-4-yl)-4H-pyrido[1,2-a]pyrimidin-4-one] | 3000 to 33000 nM
Cc1nc2c(F)cc(-c3cc(=O)n4cc(N5CCN(C)CC5)ccc4n3)cc2o1 [compound 308, 2-(4-fluoro-2-methyl-1,3-benzoxazol-6-yl)-7-(4-methylpiperazin-1-yl)-4H-pyrido[1,2-a]pyrimidin-4-one] | 500 to 1000 nM
CCN1CC=C(c2cn3c(=O)cc(-c4ccc5nc(C)oc5c4)nc3cn2)CC1 [compound 423, 7-(1-ethyl-1,2,3,6-tetrahydropyridin-4-yl)-2-(2-methyl-1,3-benzoxazol-6-yl)-4H-pyrazino[1,2-a]pyrimidin-4-one] | 3000 to 33000 nM
Cc1nc2cc(-c3cc(=O)n4cc(N5CCNCC5)ccc4n3)ccc2s1 [compound 136, 2-(2-methyl-1,3-benzothiazol-5-yl)-7-(piperazin-1-yl)-4H-pyrido[1,2-a]pyrimidin-4-one] | 3000 to 33000 nM
CN1CCN(c2ccc3nc(-c4ccc5c(cnn5C)c4)cc(=O)n3c2)CC1 [compound 489, 2-(1-methyl-1H-indazol-5-yl)-7-(4-methylpiperazin-1-yl)-4H-pyrido[1,2-a]pyrimidin-4-one] | 3000 to 33000 nM
Cc1cn2nc(-c3cc(=O)n4cc(N5CCC(N(C)CCO)CC5)cc(C)c4n3)cc2c(C)n1 [compound 582, 2-(4,6-dimethylpyrazolo[1,5-a]pyrazin-2-yl)-7-{4-[(2-hydroxyethyl)(methyl)amino]piperidin-1-yl}-9-methyl-4H-pyrido[1,2-a]pyrimidin-4-one] | 3000 to 33000 nM
Cc1cn2cc(-c3cc(=O)n4cc(C5=CCN(C(C)C)CC5)ncc4n3)cc2c(C)n1 [compound 479, 2-(1,3-dimethylpyrrolo[1,2-a]pyrazin-7-yl)-7-[1-(propan-2-yl)-1,2,3,6-tetrahydropyridin-4-yl]-4H-pyrazino[1,2-a]pyrimidin-4-one] | 3000 to 33000 nM
Cc1cn2nc(-c3cc(=O)n4cc(N5CCN6CCC[C@@H]6C5)ccc4n3)cc2c(C)n1 [compound 337, 2-(4,6-dimethylpyrazolo[1,5-a]pyrazin-2-yl)-7-[(8aR)-hexahydropyrrolo[1,2-a]pyrazin-2(1H)-yl]-4H-pyrido[1,2-a]pyrimidin-4-one] | 3000 to 33000 nM
Cc1nc2ccc(-c3cc(=O)n4cc(N5CCNCC5)ccc4n3)cc2s1 [compound 219, 2-(2-methyl-1,3-benzothiazol-6-yl)-7-(piperazin-1-yl)-4H-pyrido[1,2-a]pyrimidin-4-one] | 3000 to 33000 nM
Cc1cn2nc(-c3cc(=O)n4cc(N5CCNCC5)ccc4n3)cc2cn1 [compound 420, 2-(6-methylpyrazolo[1,5-a]pyrazin-2-yl)-7-(piperazin-1-yl)-4H-pyrido[1,2-a]pyrimidin-4-one] | 1000 to 3000 nM
Cc1cc2cc(-c3cc(=O)n4cc(N5CCNCC5)ccc4n3)oc2c(C)n1 [compound 486, 2-(5,7-dimethylfuro[2,3-c]pyridin-2-yl)-7-(piperazin-1-yl)-4H-pyrido[1,2-a]pyrimidin-4-one] | 500 to 1000 nM
Cc1nc2ccc(-c3cc(=O)n4cc(C5=CCNCC5)ncc4n3)cc2o1 [compound 421, 2-(2-methyl-1,3-benzoxazol-6-yl)-7-(1,2,3,6-tetrahydropyridin-4-yl)-4H-pyrazino[1,2-a]pyrimidin-4-one hydrochloride(1:1)] | 3000 to 33000 nM
Cc1cn2nc(-c3cc(=O)n4cc(N5CCN(CCO)CC5)ccc4n3)cc2c(C)n1 [compound 531, 2-(4,6-dimethylpyrazolo[1,5-a]pyrazin-2-yl)-7-[4-(2-hydroxyethyl)piperazin-1-yl]-4H-] | 3000 to 33000 nM
Cc1cn2cc(-c3cc(=O)n4cc(C5=CCNCC5)ncc4n3)cc2c(C)n1 [compound 413, 2-(1,3-dimethylpyrrolo[1,2-a]pyrazin-7-yl)-7-(1,2,3,6-tetrahydropyridin-4-yl)-4H-pyrazino[1,2-a]pyrimidin-4-one hydrochloride (1:2)] | < 100 nM
Cc1cn2cc(-c3cc(=O)n4cc(C5CCNCC5)ccc4n3)cc(Cl)c2n1 [compound 516, 2-(8-chloro-2-methylimidazo[1,2-a]pyridin-6-yl)-7-(piperidin-4-yl)-4H-pyrido[1,2-a]pyrimidin-4-one] | < 100 nM
